Measurements taken from BindingDB's records for doi:10.7270/Q2PK0DK8 (Nmmlsc, 2009).

These molecules were tested against Ras-related C3 botulinum toxin substrate 1 (Mus musculus, UniProt P63001) (assay: wildtype Rac1 GTP binding inhibitors, SAR follow-up, biochemical, oxadiazole analogs, multiplex bead flow cytometry (AID 2027)). Settings: not given.
Work on `COc1ccc(-c2noc(CCC(=O)N3CCN(c4cc(C)ccc4C)CC3)n2)cc1` [1-[4-(2,5-dimethylphenyl)-1-piperazinyl]-3-[3-(4-methoxyphenyl)-1,2,4-oxadiazol-5-yl]-1-propanone] yielded an EC50 of 5.08 µM.
`Cc1ccc(C)c(N2CCN(C(=O)CCc3nc(-c4ccccc4C)no3)CC2)c1` was tested, and the EC50 was 1.73 µM.
Work on `COc1ccc(-c2noc(CCC(=O)N3CCN(c4cccc(Cl)c4)CC3)n2)cc1` yielded an EC50 greater than 30 µM.
`COc1ccc(-c2noc(CCC(=O)N3CCN(c4ccccc4C(F)(F)F)CC3)n2)cc1` [UNM-0000306082] showed an EC50 of 1.69 µM.
`Cc1ccc(C)c(N2CCN(C(=O)CCc3nc(-c4cccc(C(F)(F)F)c4)no3)CC2)c1` [KUC103380N] showed an EC50 of 2.5 µM.
`Cc1ccc(C)c(N2CCN(C(=O)CCc3nc(-c4ccc(Cl)cc4)no3)CC2)c1` [UNM-0000306083] showed an EC50 of 1.83 µM.
For `COc1ccc(-c2cc(CCC(=O)N3CCN(c4cc(C)ccc4C)CC3)[nH]n2)cc1` [UNM-0000306150], the EC50 was greater than 30 µM.
For `COc1ccc(-c2cc(CCC(=O)N3CCN(c4cc(C)ccc4C)CC3)on2)cc1` [1-[4-(2,5-dimethylphenyl)piperazin-1-yl]-3-[3-(4-methoxyphenyl)-1,2-oxazol-5-yl]propan-1-one], the EC50 was greater than 30 µM.
With `COc1ccc(-c2ccc(CCC(=O)N3CCN(c4cc(C)ccc4C)CC3)s2)cc1` the EC50 was greater than 30 µM.
Molecule `COc1ccc(-c2noc(CCCCC(=O)N3CCN(c4cc(C)ccc4C)CC3)n2)cc1` [1-[4-(2,5-dimethylphenyl)-1-piperazinyl]-5-[3-(4-methoxyphenyl)-1,2,4-oxadiazol-5-yl]-1-pentanone] has an EC50 of 21 µM.
Work on `Cc1ccc(C)c(N2CCN(C(=O)CCc3nc(-c4ccccc4C(F)(F)F)no3)CC2)c1` yielded an EC50 of 2.11 µM.
Work on `COc1ccc(-c2noc(CCCC(=O)N3CCN(c4cc(C)ccc4C)CC3)n2)cc1` [KUC103353N] yielded an EC50 of 3.79 µM.
For `Cc1ccc(C)c(N2CCN(C(=O)CCc3nc(-c4cccc(Cl)c4)no3)CC2)c1` [UNM-0000306086], the EC50 was 4.97 µM.
`COc1ccc(-c2noc(CCC(=O)N3CCN(c4ccccc4Br)CC3)n2)cc1` [KUC103370N] was tested, and the EC50 was 1.7 µM.
`Cc1cccc(-c2noc(CCC(=O)N3CCN(c4cc(C)ccc4C)CC3)n2)c1` [1-[4-(2,5-dimethylphenyl)piperazin-1-yl]-3-[3-(3-methylphenyl)-1,2,4-oxadiazol-5-yl]propan-1-one] gave an EC50 of 1.22 µM.
Molecule `COc1cccc(-c2noc(CCC(=O)N3CCN(c4cc(C)ccc4C)CC3)n2)c1` has an EC50 of 6.12 µM.
In the case of `COc1ccc(-c2noc(CCC(=O)N3CCN(c4ccc(Cl)cc4)CC3)n2)cc1` [UNM-0000306121], the EC50 is reported as greater than 30 µM.
`Cc1ccc(C)c(N2CCN(C(=O)CCc3nc(-c4cccc(Br)c4)no3)CC2)c1` [KUC103367N] gave an EC50 of 1.67 µM.
In the case of `Cc1ccc(C)c(N2CCN(C(=O)CCc3nc(-c4ccc(N(C)C)cc4)no3)CC2)c1` [KUC103409N], the EC50 is reported as 2.77 µM.
For `Cc1ccc(-c2noc(CCC(=O)N3CCN(c4cc(C)ccc4C)CC3)n2)cc1` [1-[4-(2,5-dimethylphenyl)-1-piperazinyl]-3-[3-(4-methylphenyl)-1,2,4-oxadiazol-5-yl]-1-propanone], the EC50 was 3.2 µM.
Molecule `Cc1ccc(C)c(N2CCN(C(=O)CCc3nc(-c4ccc(C(F)(F)F)cc4)no3)CC2)c1` [1-[4-(2,5-dimethylphenyl)-1-piperazinyl]-3-[3-[4-(trifluoromethyl)phenyl]-1,2,4-oxadiazol-5-yl]-1-propanone] has an EC50 of 2.19 µM.
In the case of `Cc1ccc(C)c(N2CCN(C(=O)CCc3nc(-c4ccccc4F)no3)CC2)c1` [KUC103401N], the EC50 is reported as 1.82 µM.
`COc1ccc(-c2ccc(CCC(=O)N3CCN(c4cc(C)ccc4C)CC3)o2)cc1` [KUC103447N] gave an EC50 greater than 30 µM.
For `COc1ccc(-c2noc(CCC(=O)N3CCN(c4cccc(C(F)(F)F)c4)CC3)n2)cc1` [1-{3-[3-(4-methoxyphenyl)-1,2,4-oxadiazol-5-yl]propanoyl}-4-[3-(trifluoromethyl)phenyl]piperazine], the EC50 was greater than 30 µM.
`COc1ccc(-c2cccc(CCC(=O)N3CCN(c4cc(C)ccc4C)CC3)c2)cc1` [UNM-0000306127] gave an EC50 greater than 30 µM.
With `Cc1ccc(C)c(N2CCN(C(=O)CCc3nc(-c4ccc(Br)cc4)no3)CC2)c1` [UNM-0000306072] the EC50 was 2.97 µM.
In the case of `Cc1ccc(C)c(N2CCN(C(=O)CCc3nc(-c4ccccc4Br)no3)CC2)c1` [3-[3-(2-bromophenyl)-1,2,4-oxadiazol-5-yl]-1-[4-(2,5-dimethylphenyl)-1-piperazinyl]-1-propanone], the EC50 is reported as 1.71 µM.
In the case of `COc1ccc(-c2coc(CCC(=O)N3CCN(c4cc(C)ccc4C)CC3)n2)cc1` [1-[4-(2,5-dimethylphenyl)piperazin-1-yl]-3-[4-(4-methoxyphenyl)-1,3-oxazol-2-yl]propan-1-one], the EC50 is reported as 2.2 µM.
`COc1ccc(-c2noc(CCC(=O)N3CCN(c4cccc(C)c4C)CC3)n2)cc1` [1-[4-(2,3-dimethylphenyl)-1-piperazinyl]-3-[3-(4-methoxyphenyl)-1,2,4-oxadiazol-5-yl]-1-propanone] was tested, and the EC50 was 1.31 µM.
Molecule `COc1ccc(-c2noc(CCC(=O)N3CCN(c4ccccc4C)CC3)n2)cc1` has an EC50 of 1.35 µM.
In the case of `COc1ccc(-c2noc(CCC(=O)N3CCN(c4ccccc4)CC3)n2)cc1` [3-[3-(4-methoxyphenyl)-1,2,4-oxadiazol-5-yl]-1-(4-phenylpiperazin-1-yl)propan-1-one], the EC50 is reported as greater than 30 µM.
With `Cc1ccc(C)c(N2CCN(C(=O)CCc3nc(-c4cccc(F)c4)no3)CC2)c1` [KUC103366N] the EC50 was 1.48 µM.
For `COc1ccc(-c2noc(CCC(=O)N3CCN(c4cccc(F)c4)CC3)n2)cc1` [1-[4-(3-fluorophenyl)piperazin-1-yl]-3-[3-(4-methoxyphenyl)-1,2,4-oxadiazol-5-yl]propan-1-one], the EC50 was greater than 30 µM.
`COc1ccc(-c2noc(CCC(=O)N3CCN(c4ccccc4F)CC3)n2)cc1` [1-[4-(2-fluorophenyl)piperazin-1-yl]-3-[3-(4-methoxyphenyl)-1,2,4-oxadiazol-5-yl]propan-1-one] gave an EC50 of 1.11 µM.
In the case of `COc1ccc(-c2noc(CCC(=O)N3CCC(c4cc(C)ccc4C)CC3)n2)cc1` [KUC103432N], the EC50 is reported as 1.22 µM.
Work on `COc1ccc(-c2noc(CCC(=O)N3CCN(c4ccc(C(F)(F)F)cc4)CC3)n2)cc1` [3-[3-(4-methoxyphenyl)-1,2,4-oxadiazol-5-yl]-1-[4-[4-(trifluoromethyl)phenyl]piperazin-1-yl]propan-1-one] yielded an EC50 greater than 30 µM.
In the case of `Cc1ccc(C)c(N2CCN(C(=O)CCc3nc(-c4ccc(F)cc4)no3)CC2)c1` [KUC103364N], the EC50 is reported as 1.27 µM.
`COc1ccc(-c2noc(CCC(=O)N3CCN(c4cccc(Br)c4)CC3)n2)cc1` [1-[4-(3-bromophenyl)-1-piperazinyl]-3-[3-(4-methoxyphenyl)-1,2,4-oxadiazol-5-yl]-1-propanone] showed an EC50 greater than 30 µM.
Work on `COc1ccc(-c2ccc(CCC(=O)N3CCN(c4cc(C)ccc4C)CC3)[nH]2)cc1` [1-[4-(2,5-dimethylphenyl)piperazin-1-yl]-3-[5-(4-methoxyphenyl)-1H-pyrrol-2-yl]propan-1-one] yielded an EC50 greater than 30 µM.
In the case of `COc1ccc(-c2noc(CCC(=O)N3CCN(c4cccc(OC)c4)CC3)n2)cc1` [KUC103349N], the EC50 is reported as greater than 30 µM.
Molecule `Cc1ccc(C)c(N2CCN(C(=O)CCc3nc(-c4ccccc4Cl)no3)CC2)c1` [3-[3-(2-chlorophenyl)-1,2,4-oxadiazol-5-yl]-1-[4-(2,5-dimethylphenyl)-1-piperazinyl]-1-propanone] has an EC50 of 1.19 µM.
`COc1ccc(-c2noc(CCC(=O)N3CCN(c4ccccc4Cl)CC3)n2)cc1` [1-[4-(2-chlorophenyl)piperazin-1-yl]-3-[3-(4-methoxyphenyl)-1,2,4-oxadiazol-5-yl]propan-1-one] gave an EC50 of 3.34 µM.
`COc1ccc(-c2noc(CCC(=O)N3CCN(c4cccc(C)c4)CC3)n2)cc1` [UNM-0000306125] showed an EC50 greater than 30 µM.

Same assay, conditions: inactive by the depositor's call
`COc1ccc(-c2noc(CCC(=O)N3CCN(c4ccc(C)cc4)CC3)n2)cc1` [3-[3-(4-methoxyphenyl)-1,2,4-oxadiazol-5-yl]-1-[4-(4-methylphenyl)piperazin-1-yl]propan-1-one] showed an EC50 of 2.69 µM.
Molecule `COc1ccc(-c2noc(CCC(=O)N3CCN(c4ccc(Br)cc4)CC3)n2)cc1` [1-[4-(4-bromophenyl)piperazin-1-yl]-3-[3-(4-methoxyphenyl)-1,2,4-oxadiazol-5-yl]propan-1-one] has an EC50 of 0.257 µM.
Work on `COc1ccc(-c2noc(CCC(=O)N3CCN(c4ccc(F)cc4)CC3)n2)cc1` [KUC103398N] yielded an EC50 of 1.59 µM.
In the case of `COc1ccc(-c2noc(CC(=O)N3CCN(c4cc(C)ccc4C)CC3)n2)cc1` [1-[4-(2,5-dimethylphenyl)piperazin-1-yl]-2-[3-(4-methoxyphenyl)-1,2,4-oxadiazol-5-yl]ethanone], the EC50 is reported as 7.52 µM.
`COc1ccccc1-c1noc(CCC(=O)N2CCN(c3cc(C)ccc3C)CC2)n1` [UNM-0000306071] gave an EC50 of 15.1 µM.
`Cc1ccc(C)c(N2CCN(C(=O)CCc3nc(-c4ccccc4)no3)CC2)c1` [UNM-0000306070] was tested, and the EC50 was 1.64 µM.
Work on `COc1ccc(-c2noc(CCC(=O)N3CCN(c4ccccc4OC)CC3)n2)cc1` [3-[3-(4-methoxyphenyl)-1,2,4-oxadiazol-5-yl]-1-[4-(2-methoxyphenyl)-1-piperazinyl]-1-propanone] yielded an EC50 of 2.29 µM.
With `COc1ccc(-c2noc(CCC(=O)N3CCN(c4ccc(OC)cc4)CC3)n2)cc1` [3-[3-(4-methoxyphenyl)-1,2,4-oxadiazol-5-yl]-1-[4-(4-methoxyphenyl)piperazin-1-yl]propan-1-one] the EC50 was 0.527 µM.
